From paper PMC9223764, “In Vitro Selection and Characterization of HIV-1 Variants with Increased Resistance to LP-40, Enfuvirtide-Based Lipopeptide Inhibitor” (International Journal of Molecular Sciences, 2022)

Tests used:
Type in all cases: cell-based
Conditions in all cases: Table 3
[1] = test system: HIV-1 NL4-3 pseudovirus (WT)
Procedure: (§1) The infectivity of HIV Env mutants and the inhibitory activities of membrane fusion inhibitors on mutants in TZM-bl cells were measured using a single-cycle infection assay as described previously. Briefly, the HIV pseudovirus was packed using an Env-coding plasmid, and pSG3ΔEnv was co-transfected into HEK293T cells. pSG3ΔEnv encodes an Env-defective, luciferase-expressing HIV-1 genome. After the pseudoviruses were harvested and filtrated, the amount of pseudoviruses was fixed via P24 antigen, and their infectivity was determined in TZM-bl cells. In order to measure the inhibitory activities of the inhibitors, inhibitors diluted serially 3-fold were mixed with an equal volume of pseudoviruses, and then 100 µL 1 × 10^5/mL TZM-bl cells were added to the mixture and incubated at 37 °C with 5% CO2 for 48 h. After that, TZM-bl cells were lysed using reporter lysis buffer, and IC50 values were calculated according to luciferase activity measured by luciferase assay reagents and a luminescence counter (Promega, Madison, WI, USA).

[2] = test system: HIV-1 NL4-3 gp41 I37T pseudovirus
Procedure: (§2) Viral RNA was extracted from the supernatant, and, after reverse transcription, the cDNA was amplified using PCR. These amplified DNA were connected to the T-Easy vector and transformed to Trans 2-Blue Chemically Competent Cells. These sequences were determined via sequencing. The expression plasmids, which contained different HIV-1NL4-3 Env mutants, were constructed using DNA assembly (NEBuilder® HiFi DNA Assembly Master Mix). In brief, two primers were used to amplify Env, and the other two primers were used to amplify the vector fragment. The products of PCR were purified with a 20–25 bp overlap in the terminal of Env and the vector fragment Env and the vector fragment were added to the DNA assembly master mix at […] for 15 min and then transformed to Trans 2-Blue Chemically Competent Cells. Additionally, a single-point mutation was generated using double-stranded DNA templates and a selection of mutants with a restriction enzyme (DpnI) as described previously.
as §1

[3] = test system: HIV-1 NL4-3 gp41 I69V pseudovirus
Procedure: as §2, §1

[4] = test system: HIV-1 NL4-3 gp41 L33S pseudovirus
Procedure: as §2, §1

[5] = test system: HIV-1 NL4-3 gp41 L33S/I37T pseudovirus
Procedure: (§3) We selected LP-40-induced drug resistance typical point mutations and combination mutation pseudoviruses to evaluate the current representative membrane fusion inhibitors.
as §1

[6] = test system: HIV-1 NL4-3 gp41 L33S/V38A/N42T pseudovirus
Procedure: as §3, §1

[7] = test system: HIV-1 NL4-3 gp41 NDQEEDYN pseudovirus
Procedure: as §3, §1

[8] = test system: HIV-1 NL4-3 gp41 NDQEEDYN/L33S/I37T pseudovirus
Procedure: as §3, §1

[9] = test system: HIV-1 NL4-3 gp41 NDQEEDYN/L33S/V38A/N42T pseudovirus
Procedure: as §3, §1

[10] = test system: HIV-1 NL4-3 gp41 V38A/N42T pseudovirus
Procedure: as §3, §1

In the case of `CC[C@H](C)[C@H](NC(=O)[C@H](C)NC(=O)[C@H](CCCNC(=N)N)NC(=O)[C@H](CC(=O)O)NC(=O)[C@H](Cc1c[nH]c2ccccc12)NC(=O)[C@H](C)NC(=O)[C@H](CCC(=O)O)NC(=O)[C@H](Cc1c[nH]c2ccccc12)NC(=O)[C@@H](NC(=O)[C@@H](NC(C)=O)[C@@H](C)O)[C@@H](C)O)C(=O)N[C@@H](C)C(=O)N[C@@H](CCC(=O)O)C(=O)N[C@@H](Cc1ccc(O)cc1)C(=O)N[C@@H](C)C(=O)N[C@@H](C)C(=O)N[C@@H](CCCNC(=N)N)C(=O)N[C@H](C(=O)N[C@@H](CCC(=O)O)C(=O)N[C@@H](C)C(=O)N[C@@H](CC(C)C)C(=O)N[C@H](C(=O)N[C@@H](CCCNC(=N)N)C(=O)N[C@@H](C)C(=O)N[C@@H](C)C(=O)N[C@@H](CCC(N)=O)C(=O)N[C@@H](CCC(=O)O)C(=O)N[C@@H](CCC(N)=O)C(=O)N[C@@H](CCC(N)=O)C(=O)N[C@@H](CCC(=O)O)C(=O)N[C@@H](CCCCN)C(=O)N[C@@H](CC(N)=O)C(=O)N[C@@H](CCC(=O)O)C(=O)N[C@@H](C)C(=O)N[C@@H](C)C(=O)N[C@@H](CC(C)C)C(=O)N[C@@H](CCCNC(=N)N)C(=O)N[C@@H](CCC(=O)O)C(=O)N[C@@H](CC(C)C)C(N)=O)[C@@H](C)CC)[C@@H](C)CC` [T2635], the IC50 ([1]; WT NL4-3, TZM-bl cells, 48 h, luciferase, means, triplicate, repeated three times) is reported as 0.73 nM, the “Fold change in IC50” value ([1]; WT NL4-3 reference) is reported as 1.00 fold and the “Fold change in IC50” value ([2]; I37T relative to WT NL4-3) is reported as 1.33 fold. The IC50 ([2]; I37T, TZM-bl cells, 48 h, luciferase, means, triplicate, repeated three times) was 0.97 nM, the “Fold change in IC50” value ([3]; I69V relative to WT NL4-3) was 1.04 fold and the IC50 ([3]; I69V, TZM-bl cells, 48 h, luciferase, means, triplicate, repeated three times) was 0.75 nM. For the same compound, the “Fold change in IC50” value ([4]; L33S relative to WT NL4-3) was 1.97 fold, the IC50 ([4]; L33S, TZM-bl cells, 48 h, luciferase, means, triplicate, repeated three times) was 1.43 nM and the “Fold change in IC50” value ([5]; L33S/I37T relative to WT NL4-3) was 2.07 fold. For the same compound, the IC50 ([5]; L33S/I37T, TZM-bl cells, 48 h, luciferase, means, triplicate, repeated three times) was 1.51 nM, the “Fold change in IC50” value ([6]; L33S/V38A/N42T relative to WT NL4-3) was 1.78 fold and the IC50 ([6]; L33S/V38A/N42T, TZM-bl cells, 48 h, luciferase, means, triplicate, repeated three times) was 1.3 nM. For the same compound, the IC50 ([7]; NDQEEDYN (E109N, N113D, E119Q, D121E, N125E, S129D, H132Y, S133N), TZM-bl cells, 48 h, luciferase, means, triplicate, repeated three times) was 1.94 nM, the “Fold change in IC50” value ([7]; NDQEEDYN relative to WT NL4-3) was 2.67 fold and the “Fold change in IC50” value ([8]; NDQEEDYN/L33S/I37T relative to WT NL4-3) was 7.49 fold. For the same compound, the IC50 ([8]; NDQEEDYN/L33S/I37T, TZM-bl cells, 48 h, luciferase, means, triplicate, repeated three times) was 5.44 nM, the “Fold change in IC50” value ([9]; NDQEEDYN/L33S/V38A/N42T relative to WT NL4-3) was 7.85 fold and the IC50 ([9]; NDQEEDYN/L33S/V38A/N42T, TZM-bl cells, 48 h, luciferase, means, triplicate, repeated three times) was 5.73 nM. The “Fold change in IC50” value ([10]; V38A/N42T relative to WT NL4-3) was 0.77 fold and the IC50 ([10]; V38A/N42T, TZM-bl cells, 48 h, luciferase, means, triplicate, repeated three times) was 0.56 nM.
